In the assay the target is T1, Recombinant mouse PD-L1 (Mus musculus, UniProt Q9EP73).
T1 construct: Fc (Fc chimera); purchased R&D Systems 1019-B7-100
T1 sequence (Q9EP73 with tags, fused parts or gaps limits assumed): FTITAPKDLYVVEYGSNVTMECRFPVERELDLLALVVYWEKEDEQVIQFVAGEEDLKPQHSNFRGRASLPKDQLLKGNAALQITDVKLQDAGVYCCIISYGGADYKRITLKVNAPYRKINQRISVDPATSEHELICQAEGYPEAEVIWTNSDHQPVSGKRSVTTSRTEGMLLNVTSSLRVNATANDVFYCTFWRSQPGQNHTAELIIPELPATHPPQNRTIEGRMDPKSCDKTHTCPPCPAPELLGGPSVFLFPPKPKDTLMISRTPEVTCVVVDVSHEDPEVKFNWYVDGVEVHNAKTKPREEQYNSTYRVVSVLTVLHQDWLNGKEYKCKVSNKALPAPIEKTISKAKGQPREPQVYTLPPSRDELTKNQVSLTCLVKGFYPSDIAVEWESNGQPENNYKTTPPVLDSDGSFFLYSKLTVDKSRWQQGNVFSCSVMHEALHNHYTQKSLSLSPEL
As to the kind of experiment: Rescue of mouse splenocyte proliferation in the presence of recombinant PD-L1/PD-L2 (CFSE proliferation assay). As to conditions: 100 nM compound; anti-CD3/CD28 stimulated mouse splenocytes + PD-L1; 72 h; normalised to stimulated splenocyte proliferation as 100%; read-out: Percent rescue of splenocyte proliferation (@100 nM compound concentration). Type of assay: cell-based. On the procedure: Rescue of Mouse Splenocyte Proliferation in the Presence of Recombinant PD-L1/PD-L2:
Recombinant mouse PD-L1 (rm-PDL-1, cat no: 1019-B7-100 and R&D Systems) were used as the source of PD-L1.
Mouse splenocytes harvested from 6-8 weeks old C57 BL6 mice; RPMI 1640 (GIBCO, Cat #11875); DMEM with high glucose (GIBCO, Cat # D6429); Fetal Bovine Serum [Hyclone, Cat # SH30071.03]; Penicillin (10000 unit/ml)-Streptomycin (10,000 μg/ml) Liquid (GIBCO, Cat #15140-122); MEM Sodium Pyruvate solution 100 mM (100×), Liquid (GIBCO, Cat #11360); Nonessential amino acid (GIBCO, Cat #11140); L-Glutamine (GIBCO, Cat #25030); Anti-CD3 antibody (eBiosciences—16-0032); Anti-CD28 antibody (eBiosciences—16-0281); ACK lysis buffer (1 mL) (GIBCO, Cat #-A10492); Histopaque (density—1.083 gm/mL) (SIGMA 10831); Trypan blue solution (SIGMA-T8154); 2 mL Norm Ject Luer Lock syringe-(Sigma 2014-12); 40 μM nylon cell strainer (BD FALCON 35230); Hemacytometer (Bright line-SIGMA Z359629); FACS Buffer (PBS/0.1% BSA): Phosphate Buffered Saline (PBS) pH 7.2 (HiMedia TS1006) with 0.1% Bovine Serum Albumin (BSA) (SIGMA A7050) and sodium azide (SIGMA 08591); 5 mM stock solution of CFSE: CFSE stock solution was prepared by diluting lyophilized CFSE with 180 μL of Dimethyl sulfoxide (DMSO C2H6SO, SIGMA-D-5879) and aliquoted in to tubes for further use. Working concentrations were titrated from 10 μM to 1 μM. (eBioscience-650850-85); 0.05% Trypsin and 0.02% EDTA (SIGMA 59417C); 96-well format ELISA plates (Corning CLS3390); BD FACS caliber (E6016); Recombinant mouse B7-H1/PDL1 Fc Chimera, (rm-PD-L1 cat no: 1019-B7-100).
Splenocytes harvested in a 50 mL falcon tube by mashing mouse spleen in a 40 μm cell strainer were further treated with 1 mL ACK lysis buffer for 5 min at room temperature. After washing with 9 mL of RPMI complete media, cells were re-suspended in 3 mL of 1×PBS in a 15 mL tube. 3 mL of Histopaque was added carefully to the bottom of the tube without disturbing overlaying splenocyte suspension. After centrifuging at 800×g for 20 min at room temperature, the opaque layer of splenocytes was collected carefully without disturbing/mixing the layers. Splenocytes were washed twice with cold 1×PBS followed by total cell counting using Trypan Blue exclusion method and used further for cell based assays.
Splenocytes were cultured in RPMI complete media (RPMI+10% fetal bovine serum+1 mM sodium pyruvate+10,000 units/ml penicillin and 10,000 μg/ml streptomycin) and maintained in a CO2 incubator with 5% CO2 at 37° C.
CFSE is a dye that passively diffuses into cells and binds to intracellular proteins. 1×10^6 cells/mL of harvested splenocytes were treated with 5 μM of CFSE in pre-warmed 1×PBS/0.1% BSA solution for 10 min at 37° C. Excess CFSE was quenched using 5 volumes of ice-cold culture media to the cells and incubated on ice for 5 min. CFSE labelled splenocytes were further given three washes with ice cold complete RPMI media. CFSE labelled 1×10^5 splenocytes added to wells containing either MDA-MB231 cells (1×10^5 cells cultured in high glucose DMEM medium) or recombinant […] PDL-1 (100 ng/mL) and test compounds. Splenocytes were stimulated with anti-mouse CD3 and anti-mouse CD28 antibody (1 μg/mL each), and the culture was further incubated for 72 h at 37° C. with 5% CO2. Cells were harvested and washed thrice with ice cold FACS buffer and % proliferation was analyzed by flow cytometry with 488 nm excitation and 521 nm emission filters.
Percent splenocyte proliferation was analyzed using cell quest FACS program and percent rescue of splenocyte proliferation by compound was estimated after deduction of % background proliferation value and normalising to % stimulated splenocyte proliferation (positive control) as 100%.
Stimulated splenocytes: Splenocytes+anti-CD3/CD28 stimulation
Background proliferation: Splenocytes+anti-CD3/CD28+PD-L1
Compound proliferation: Splenocytes+anti-CD3/CD28+PD-L1+Compound […]
For `NC(=O)CC[C@H](NC(=O)N[C@@H](CO)C(=O)O)c1nnc([C@@H](N)CO)o1` [Compound 17], the activation at 0.1 µM stood at 53%.
The value for `CC(O)[C@H](NC(=O)N[C@@H](CC(N)=O)c1nnc([C@@H](N)CO)s1)C(=O)O` (stereo partly shown) [Compound 4] was 60%.
The value for `CC(O)[C@H](NC(=O)N[C@@H](CC(N)=O)c1nnc([C@@H](N)C(C)O)o1)C(=O)O` (stereo partly shown) [Compound 9] was 74%; that for `CC(O)[C@H](NC(=O)N[C@@H](CCC(N)=O)c1nnc([C@@H](N)C(C)O)o1)C(=O)O` (stereo partly shown) [Compound 13] was 75%; that for `CC(O)[C@H](NC(=O)N[C@@H](CC(N)=O)c1nnc([C@@H](N)CO)o1)C(=O)O` (stereo partly shown) [Compound 2] was 80.3%.
The value for `CC(O)[C@H](N)c1nnc([C@H](CCC(N)=O)NC(=O)N[C@@H](CO)C(=O)O)o1` (stereo partly shown) [Compound 12] was 92%; that for `NC(=O)C[C@H](NC(=O)N[C@@H](CO)C(=O)O)c1nnc([C@@H](N)CO)o1` [Compound 14] was 53%.
On to `CC(O)[C@H](NC(=O)N[C@@H](CCC(N)=O)c1nnc([C@@H](N)CO)o1)C(=O)O` (stereo partly shown) [Compound 16], for which the activation at 0.1 µM is 56%.
To `CC(O)[C@H](NC(=O)N[C@@H](C)c1nnc([C@@H](N)CO)o1)C(=O)O` (stereo partly shown) [Compound 1] belongs 61.2%; to `CC(O)[C@H](N)c1nnc([C@H](CC(N)=O)NC(=O)N[C@@H](CO)C(=O)O)o1` (stereo partly shown) [Compound 10], 58%.
The value for `NC(=O)C[C@H](N)c1nnc([C@@H](N)CO)s1` [Compound 3] was 48.4%.
In the case of `CC(O)[C@H](NC(=O)N[C@@H](CC(=O)O)c1nnc([C@@H](N)CO)o1)C(=O)O` (stereo partly shown) [Compound 18], the activation at 0.1 µM is 68%.
To `CC(O)[C@H](NC(=O)N[C@@H](CCC(=O)O)c1nnc([C@@H](N)CO)o1)C(=O)O` (stereo partly shown) [Compound 15] belongs 69%.

The record behind these values is patent US10160736B2, “1,3,4-oxadiazole and 1,3,4-thiadiazole derivatives as immunomodulators” (Aurigene Discovery Technologies Limited, priority 2013, dated 2018).
